Results from the NIST ThermoML archive (doi:10.1016/j.fluid.2005.03.027).
± gives the expanded uncertainty stated by the source.

Conditions: Crystal; visual observation

Compound	Normal melting temperature [°C]
Oc1ccccc1 [phenol]	41.70 ± 0.39
CN1CCCC1=O [N-methylpyrrolidone]	-23.47 ± 0.39
Cc1cc(C)cc(O)c1 [3,5-dimethylphenol]	63.77 ± 0.39
